Measured values reported in ChEMBL document CHEMBL1134967, “Identification of novel inhibitors of fibroblast growth factor (FGF-2) binding to heparin and endothelial cell survival from a structurally diverse carbohybrid library” (Bioorg Med Chem Lett, 2002).
Values joined by “and” are separate entries in the source; they are usually repeats but may differ in a detail not shown here. Identical values can stand only once.

Tests used:
[1] = molecular target: T1, Fibroblast growth factor 2 (Homo sapiens, UniProt P09038); assay: Inhibition of Fibroblast growth factor 2 binding to heparin-albumin in ELISA
[2] = molecular target: T1, Fibroblast growth factor 2; assay: 25% inhibition of FGF-2 binding to heparin-albumin by ELISA
[3] = molecular target: T1, Fibroblast growth factor 2; assay: 24% inhibition of FGF-2 binding to heparin-albumin by ELISA
[4] = molecular target: T1, Fibroblast growth factor 2; assay: 23% inhibition of FGF-2 binding to heparin-albumin by ELISA

T1 sequence (P09038 143-288 limits assumed): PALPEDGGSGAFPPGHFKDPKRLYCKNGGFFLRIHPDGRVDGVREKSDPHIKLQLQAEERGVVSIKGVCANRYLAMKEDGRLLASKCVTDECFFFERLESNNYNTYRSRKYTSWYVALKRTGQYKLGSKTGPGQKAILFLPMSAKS

Row | SMILES | Imax [1] [%] | IC50 [2] | IC50 [3] [nM] | IC50 [4] [nM]
1 | O=C(NC1OC(C(=O)O)C(O)C(O)C1O)c1ccncc1 (stereo not given) | 45 |  |  | 
2 | O=C(NC1OC(C(=O)O)C(O)C(O)C1O)c1ccc(F)c(F)c1 (stereo not given) | 39 | 33000 nM |  | 
3 | O=C(COc1ccc(Cl)cc1Cl)NC1OC(C(=O)O)C(O)C(O)C1O (stereo not given) | 24 |  | 25.2 | 
4 | O=C(NC1OC(C(=O)O)C(O)C(O)C1O)c1cccs1 (stereo not given) | 40 |  |  | 
5 | COc1cc(C(=O)NC2OC(C(=O)O)C(O)C(O)C2O)cc(OC)c1OC (stereo not given) | 23 |  |  | 150
6 | O=C(O)[C@@H]1O[C@@H](OCCN2C(=O)CCC2=O)[C@@H](O)[C@@H](O)[C@@H]1O | 25 | < 313 nM and 340 nM |  | 
